Measured values reported in patent US7829568B2, “Substituted 5,6,7,8-tetrahydroimidazo[1,2-a]pyridin-2-ylamine compounds and their use for producing drugs” (Gruenenthal GmbH, priority 2005, dated 2010).

The molecules below were run on batrachotoxin (BTX) binding site of the sodium channel (assay: Affinity to the batrachotoxin (BTX) binding site of the sodium channel). Conditions: [3H]-batrachotoxinin A20 α-benzoate 10 nM; synaptosomes from rat cerebral cortex; test concentration not given.
Design: species or system rat
In the case of CN(C(=O)c1cccc(Cl)c1)c1nc2n(c1C(=O)N1CCN(c3cccc(C(F)(F)F)c3)CC1)CCCC2 [Example 14, 3-chloro-N-methyl-N-{3-[4-(3-trifluoromethyl-phenyl)-piperazine-1-carbonyl]-5,6,7,8-tetrahydro-imidazo[1,2-a]pyridin-2-yl}-benzamide], the “BTX inhibition (rat) (% inhibition)” value is reported as 41%. For CCc1ccccc1N1CCN(C(=O)c2c(N(C)C(=O)c3cccc4ccccc34)nc3n2CCCC3)CC1 [Example 136, naphthalene-1-carboxylic acid {3-[4-(2-ethyl-phenyl)-piperazine-1-carbonyl]-5,6,7,8-tetrahydro-imidazo[1,2-a]pyridin-2-yl}-methyl-amide], the “BTX inhibition (rat) (% inhibition)” value was 54%. In the case of CCCCN(C(=O)c1cccc(Cl)c1)c1nc2n(c1C(=O)NCC1COc3ccccc3O1)CCCC2 (stereo not drawn) [Example 77, 2-[butyl-(3-chloro-benzoyl)-amino]-5,6,7,8-tetrahydro-imidazo[1,2-a]pyridine-3-carboxylic acid (2,3-dihydro-benzo[1,4]dioxin-2-ylmethyl)-amide], the “BTX inhibition (rat) (% inhibition)” value is reported as 56%. In the case of CN(C(=O)c1ccccc1)c1nc2n(c1C(=O)N1CCN(c3ccc(C(F)(F)F)cc3)CC1)CCCC2 [Example 167, N-methyl-N-{3-[4-(4-trifluoromethyl-phenyl)-piperazine-1-carbonyl]-5,6,7,8-tetrahydro-imidazo[1,2-a]pyridin-2-yl}-benzamide], the “BTX inhibition (rat) (% inhibition)” value is reported as 44%. With CN(C(=O)c1cccc2ccccc12)c1nc2n(c1C(=O)N(C)C1CCN(Cc3ccc(-c4ccccc4)cc3)C1)CCCC2 (stereo not drawn) [Example 76, 2-[methyl-(naphthalene-1-carbonyl)-amino]-5,6,7,8-tetrahydro-imidazo[1,2-a]pyridine-3-carboxylic acid (1-biphenyl-4-ylmethyl-pyrrolidin-3-yl)-methyl-amide] the “BTX inhibition (rat) (% inhibition)” value was 95%. With CCCCN(C(=O)c1ccc(F)c(F)c1)c1nc2n(c1C(=O)N1CCN(Cc3ccc(Cl)cc3)CC1)CCCC2 [Example 150, N-butyl-N-{3-[4-(4-chlorobenzyl)-piperazine-1-carbonyl]-5,6,7,8-tetrahydro-imidazo[1,2-a]pyridin-2-yl}-3,4-difluoro-benzamide] the “BTX inhibition (rat) (% inhibition)” value was 69%. In the case of CN(C(=O)Cc1ccccc1)c1nc2n(c1C(=O)N1CCN(CCCc3ccccc3)CC1)CCCC2 [Example 176, N-methyl-2-phenyl-N-{3-[4-(3-phenyl-propyl)-piperazine-1-carbonyl]-5,6,7,8-tetrahydro-imidazo[1,2-a]pyridin-2-yl}-acetamide], the “BTX inhibition (rat) (% inhibition)” value is reported as 71%. In the case of Cc1ccc(NC(=O)c2c(N(C)C(=O)Cc3ccccc3)nc3n2CCCC3)cc1 [Example 159, 2-(methyl-phenylacetyl-amino)-5,6,7,8-tetrahydro-imidazo[1,2-a]pyridine-3-carboxylic acid p-tolylamide], the “BTX inhibition (rat) (% inhibition)” value is reported as 37%. CN(C(=O)c1cccc2ccccc12)c1nc2n(c1C(=O)N1CCN(Cc3cc4ccccc4o3)CC1)CCCC2 [Example 108, naphthalene-1-carboxylic acid [3-(4-benzofuran-2-ylmethyl-piperazine-1-carbonyl)-5,6,7,8-tetrahydro-imidazo[1,2-a]pyridin-2-yl]-methyl-amide] was tested, and the “BTX inhibition (rat) (% inhibition)” value was 41%. In the case of COc1cc(OC)c(CN2CCN(C(=O)c3c(N(C)C(=O)c4cccc(Cl)c4)nc4n3CCCC4)CC2)c(OC)c1 [Example 146, 3-chloro-N-methyl-N-{3-[4-(2,4,6-trimethoxy-benzyl)-piperazine-1-carbonyl]-5,6,7,8-tetrahydro-imidazo[1,2-a]pyridin-2-yl}-benzamide], the “BTX inhibition (rat) (% inhibition)” value is reported as 70%. In the case of CCCCN(C(=O)c1cccc(Cl)c1)c1nc2n(c1C(=O)NCc1ccc(OC(F)(F)F)cc1)CCCC2 [Example 127, 2-[butyl-(3-chloro-benzoyl)-amino]-5,6,7,8-tetrahydro-imidazo[1,2-a]pyridine-3-carboxylic acid 4-trifluoromethoxy-benzylamide], the “BTX inhibition (rat) (% inhibition)” value is reported as 60%. Cc1ccc(C)c(N2CCN(C(=O)c3c(N(C)C(=O)c4cccc(Cl)c4)nc4n3CCCC4)CC2)c1 [Example 100, 3-chloro-N-{3-[4-(2,5-dimethyl-phenyl)-piperazine-1-carbonyl]-5,6,7,8-tetrahydro-imidazo[1,2-a]pyridin-2-yl}-N-methyl-benzamide] was tested, and the “BTX inhibition (rat) (% inhibition)” value was 74%. In the case of CCCCN(C(=O)c1ccc(F)c(F)c1)c1nc2n(c1C(=O)NCCC(C)(C)C)CCCC2 [Example 171, 2-[butyl-(3,4-difluoro-benzoyl)-amino]-5,6,7,8-tetrahydro-imidazo[1,2-a]pyridine-3-carboxylic acid (3,3-dimethyl-butyl)-amide], the “BTX inhibition (rat) (% inhibition)” value is reported as 47%. In the case of CCc1ccc(NC(=O)c2c(N(C)C(=O)c3cccc(Cl)c3)nc3n2CCCC3)cc1 [Example 31, 2-[(3-chloro-benzoyl)-methyl-amino]-5,6,7,8-tetrahydro-imidazo[1,2-a]pyridine-3-carboxylic acid (4-ethyl-phenyl)-amide], the “BTX inhibition (rat) (% inhibition)” value is reported as 70%. With CN(C(=O)c1cccc2ccccc12)c1nc2n(c1C(=O)NCc1cc(C(F)(F)F)cc(C(F)(F)F)c1)CCCC2 [Example 15, 2-[Methyl-(naphthalene-1-carbonyl)-amino]-5,6,7,8-tetrahydro-imidazo[1,2-a]pyridine-3-carboxylic acid 3,5-bis-trifluoromethyl-benzylamide] the “BTX inhibition (rat) (% inhibition)” value was 68%. For CCCCN(C(=O)c1cccc(Cl)c1)c1nc2n(c1C(=O)NCCN1CCCC1)CCCC2 [Example 58, 2-[butyl-(3-chloro-benzoyl)-amino]-5,6,7,8-tetrahydro-imidazo[1,2-a]pyridine-3-carboxylic acid (2-pyrrolidin-1-yl-ethyl)-amide], the “BTX inhibition (rat) (% inhibition)” value was 50%. For CCCCN(C(=O)c1cccc(Cl)c1)c1nc2n(c1C(=O)N1CCC(O)(c3cccc(C(F)(F)F)c3)CC1)CCCC2 [Example 175, N-butyl-3-chloro-N-{3-[4-hydroxy-4-(3-trifluoromethyl-phenyl)-piperidine-1-carbonyl]-5,6,7,8-tetrahydro-imidazo[1,2-a]pyridin-2-yl}-benzamide], the “BTX inhibition (rat) (% inhibition)” value was 65%. For CN(C(=O)c1cccc(Cl)c1)c1nc2n(c1C(=O)N1CCC(O)(c3cccc(C(F)(F)F)c3)CC1)CCCC2 [Example 81, 3-chloro-N-{3-[4-hydroxy-4-(3-trifluoromethyl-phenyl)-piperidine-1-carbonyl]-5,6,7,8-tetrahydro-imidazo[1,2-a]pyridin-2-yl}-N-methyl-benzamide], the “BTX inhibition (rat) (% inhibition)” value was 33%. For Cc1ccc(CCNC(=O)c2c(N(C)C(=O)c3cccc4ccccc34)nc3n2CCCC3)cc1 [Example 49, 2-[methyl-(naphthalene-1-carbonyl)-amino]-5,6,7,8-tetrahydro-imidazo[1,2-a]pyridine-3-carboxylic acid (2-p-tolyl-ethyl)-amide], the “BTX inhibition (rat) (% inhibition)” value was 37%. CN(C(=O)c1ccccc1)c1nc2n(c1C(=O)NCc1ccc(Cl)cc1)CCCC2 [Example 157, 2-(benzoyl-methyl-amino)-5,6,7,8-tetrahydro-imidazo[1,2-a]pyridine-3-carboxylic acid 4-chloro-benzylamide] was tested, and the “BTX inhibition (rat) (% inhibition)” value was 43%. For CCCCN(C(=O)c1cccc(Cl)c1)c1nc2n(c1C(=O)NCc1cccc(F)c1)CCCC2 [Example 158, 2-[butyl-(3-chloro-benzoyl)-amino]-5,6,7,8-tetrahydro-imidazo[1,2-a]pyridine-3-carboxylic acid 3-fluoro-benzylamide], the “BTX inhibition (rat) (% inhibition)” value was 33%.
